A word on the IC50: it is the concentration that inhibits the measured activity by half.

What all share (assay type): biochemical
The target of one test is T1, AKT2 (Homo sapiens, UniProt P31751).
T1 construct: purchased SignalChem
The test can be described thus: AKT Kinase Assay (IMAP fluorescent polarisation) vs AKT2. As for the experimental part:
(§1) Testing of the compounds was performed using an AKT Kinase Assay:
(§2) Activated AKT isoforms 1, 2 and 3 were assayed utilising a 5′ FAM Crosstide (Seq. GRPRTSSFAEG-OH)(SEO ID NO: 1). The extent of kinase phosphorylation was determined by fluorescent polarisation using IMAP progressive binding reagent, which introduces binding beads which allow the reagent to specifically bind to phosphate residues via covalent co-ordination complex bonds.
(§3) iMAP binding solution stops Crosstide/kinase interaction and specifically binds phosphorylated substrates. The degree of phosphorylation is determined by fluorescent polarisation (excitation 485 nm; emission 528 nm) or the reduction in speed of rotation of the excited substrate.
(§4) The following materials were used in the assay: • a) Activated AKT isoforms (SignalChem.) dissolved in Complete Reaction buffer at a pre-determined concentration selected so that the assay was carried out in the linear range. • b) AKT substrate peptide: FAM Crosstide (R7110) Molecular Devices, diluted in complete reaction buffer. • c) iMAP Progressive Screening Express Kit (R8127) Molecular Devices • d) Complete Reaction Buffer containing 0.1% BSA, 10 mM Tris-HCl, 10 mM MgCl2, 0.05% NaN3 and 0.01% phosphate free BSA, 1 mM DTT • e) Progressive Binding Solution containing 75% Buffer A, 25% Buffer B and low volume Binding Reagent which contains the binding entity for the assay • f) ATP diluted in complete reaction buffer • g) Black polystyrene 384 well assay plates (Nunc). • h) Biotek Synergy 4 Hybrid Plate reader.
(§5) 5 μl of test compound was dissolved in DMSO (Sigma Aldrich) and serially diluted in complete reaction buffer to give a fourteen point half log dose response and plated into 384 well black plates. The compound was incubated at room temperature with activated AKT isoform ([…] ) at the pre-determined concentration, for 45 minutes.
(§6) 2.5 μl of ATP solution mixed with 2.5 μl of AKT substrate peptide (FAM Crosstide (R7110) Molecular Devices) were dispensed into each well and the plate centrifuged at 1000 rpm for 20 seconds to ensure homogenous mixing of reagents. The reaction mix was incubated in the dark for one hour at room temperature.
(§7) The kinase reaction was stopped by the addition of Progressive Binding Solution and the mixture allowed to equilibrate for one hour in the dark, at room temperature.
(§8) The fluorescent polarisation generated in each well was determined using a […] Synergy 4 Hybrid plate reader. In brief, each reaction solution was excited at 485 nm with the emission measured at 528 nm in both the parallel and perpendicular pathway.
(§9) The polarisation value generated in each well was calculated by Gen5 software (Biotek) and the % inhibition of kinase activity compared to vehicle control was calculated via GraphPad Prism. IC50 values for each compound were calculated by non-linear regression analysis using Prism software.
(§10) All plates were internally controlled by two methods. Firstly, by calculating the signal:noise ratio; based on kinase polarisation without inhibitor and polarisation generated by complete reaction buffer in the absence of activated kinase. Secondly by determining IC50 values generated by known inhibitors of the AKT isoforms.

The target of the next test is T2, AKT1 (Homo sapiens, UniProt P31749).
T2 construct: purchased SignalChem
The test can be described thus: AKT Kinase Assay (IMAP fluorescent polarisation) vs AKT1. As for the experimental part:
as §1, §2, §3, §4, §5, §6, §7, §8, §9, §10

Another test concerns the target T3, AKT3 (Homo sapiens, UniProt Q9Y243).
T3 construct: purchased SignalChem
The test can be described thus: AKT Kinase Assay (IMAP fluorescent polarisation) vs AKT3. As for the experimental part: as §1, §2, §3, §4, §5, §6, §7, §8, §9, §10

T1 sequence (P31751 whole entry): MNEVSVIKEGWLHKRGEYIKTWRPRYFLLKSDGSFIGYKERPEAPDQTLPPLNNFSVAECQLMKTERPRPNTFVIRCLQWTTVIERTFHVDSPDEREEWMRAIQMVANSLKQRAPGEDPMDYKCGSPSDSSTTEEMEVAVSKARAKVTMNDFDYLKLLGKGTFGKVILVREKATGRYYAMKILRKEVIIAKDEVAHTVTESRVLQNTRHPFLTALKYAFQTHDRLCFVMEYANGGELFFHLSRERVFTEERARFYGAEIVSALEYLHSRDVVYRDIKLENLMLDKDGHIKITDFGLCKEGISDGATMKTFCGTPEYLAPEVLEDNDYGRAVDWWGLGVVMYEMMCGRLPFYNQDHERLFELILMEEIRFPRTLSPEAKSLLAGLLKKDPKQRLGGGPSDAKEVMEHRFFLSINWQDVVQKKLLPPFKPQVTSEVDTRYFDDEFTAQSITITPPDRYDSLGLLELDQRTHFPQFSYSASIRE
T2 sequence (P31749 whole entry): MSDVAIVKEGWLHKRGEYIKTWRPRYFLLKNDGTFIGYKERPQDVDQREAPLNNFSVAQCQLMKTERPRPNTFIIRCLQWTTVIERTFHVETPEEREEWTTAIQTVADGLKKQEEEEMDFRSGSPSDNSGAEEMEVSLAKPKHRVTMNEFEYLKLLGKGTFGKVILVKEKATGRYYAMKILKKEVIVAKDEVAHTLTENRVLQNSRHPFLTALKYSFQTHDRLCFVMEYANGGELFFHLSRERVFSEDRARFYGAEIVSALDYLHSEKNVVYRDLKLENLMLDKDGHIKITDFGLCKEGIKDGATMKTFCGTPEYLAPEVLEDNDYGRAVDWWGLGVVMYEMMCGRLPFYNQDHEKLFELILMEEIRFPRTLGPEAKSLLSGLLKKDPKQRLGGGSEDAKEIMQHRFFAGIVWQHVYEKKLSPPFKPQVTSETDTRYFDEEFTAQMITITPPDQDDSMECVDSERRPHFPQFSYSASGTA
T3 sequence (Q9Y243 whole entry): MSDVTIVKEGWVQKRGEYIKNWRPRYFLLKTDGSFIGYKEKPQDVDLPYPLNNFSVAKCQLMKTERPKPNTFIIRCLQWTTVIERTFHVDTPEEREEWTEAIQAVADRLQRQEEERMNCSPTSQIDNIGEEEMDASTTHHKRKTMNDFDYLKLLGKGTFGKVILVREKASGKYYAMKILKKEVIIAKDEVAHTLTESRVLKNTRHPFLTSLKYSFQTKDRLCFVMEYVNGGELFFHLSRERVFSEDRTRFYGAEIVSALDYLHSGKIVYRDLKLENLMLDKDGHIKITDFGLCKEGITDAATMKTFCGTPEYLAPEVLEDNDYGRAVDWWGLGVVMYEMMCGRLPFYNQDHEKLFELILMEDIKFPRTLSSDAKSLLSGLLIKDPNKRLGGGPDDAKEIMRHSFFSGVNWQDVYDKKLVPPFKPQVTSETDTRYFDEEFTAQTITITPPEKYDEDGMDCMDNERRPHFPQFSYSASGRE

As to `NC1(c2ccc(-c3nc4c(cc3-c3ccccc3)C(=O)CCC4)cc2)CCC1` [Example 1, 2-(4-(1-aminocyclobutyl)phenyl)-3-phenyl-7,8-dihydroquinolin-5(6H)-one], the IC50 was 1000 to 10000 nM at AKT2, 1000 to 10000 nM on AKT1 and greater than 10000 nM at AKT3.

For the compound `Cn1cc(N2C(=O)COc3nc(-c4ccc(C5(N)CCC5)cc4)c(-c4ccccc4)cc32)cn1` [Example 83, 6-(4-(1-aminocyclobutyl)phenyl)-1-(1-methyl-1H-pyrazol-4-yl)-7-phenyl-1H-pyrido[2,3-b][1,4]oxazin-2(3H)-one], the IC50 at AKT2, on AKT1 and at AKT3 was 1000 to 10000 nM each time.

`CN1C(=O)COc2nc(-c3ccc([C@]4(N)C[C@](C)(O)C4)cc3)c(-c3ccccc3)cc21` [Example 113, 6-(4-((1r,3r)-1-amino-3-hydroxy-3-methylcyclobutyl)phenyl)-1-methyl-7-phenyl-1H-pyrido[2,3-b][1,4]oxazin-2(3H)-one]: the IC50 is 100 to 1000 nM on AKT2, no more than 100 nM on AKT1 and 1000 to 10000 nM at AKT3.

As to `NC1(c2ccc(-c3nc4c(cc3-c3ccccc3)N(Cc3cccnc3)C(=O)CO4)cc2)CCC1` [Example 46, 6-(4-(1-aminocyclobutyl)phenyl)-7-phenyl-1-(pyridin-3-ylmethyl)-1H-pyrido[2,3-b][1,4]oxazin-2(3H)-one], the IC50 on AKT2, on AKT1 and at AKT3 was 100 to 1000 nM each time.

As for `NC1(c2ccc(-c3nc4c(cc3-c3ccccc3)N(c3cccnc3)CCO4)cc2)CCC1` [Example 91, 1-(4-(7-phenyl-1-(pyridin-3-yl)-2,3-dihydro-1H-pyrido[2,3-b][1,4]oxazin-6-yl)phenyl)cyclobutanamine], the IC50 is no more than 100 nM on AKT2, 100 to 1000 nM on AKT1 and 1000 to 10000 nM at AKT3.

Consider `CN1C(=O)COc2nc(-c3ccc([C@]4(N)C[C@H](O)C4)cc3)c(-c3ccccc3)cc21` [Example 137, 6-(4-((1r,3r)-1-amino-3-hydroxycyclobutyl)phenyl)-1-methyl-7-phenyl-1H-pyrido[2,3-b][1,4]oxazin-2(3H)-one], for which the IC50 is 100 to 1000 nM at AKT2, no more than 100 nM on AKT1 and 1000 to 10000 nM on AKT3.

With `CCc1nnc2n1-c1cc(-c3ccccc3)c(-c3ccc(CN)cc3)nc1OC2` [Example 142, (4-(1-ethyl-8-phenyl-4H-pyrido[2,3-b][1,2,4]triazolo[4,3-d][1,4]oxazin-7-yl)phenyl)methanamine], the IC50 at AKT2, on AKT1 and at AKT3 was 1000 to 10000 nM in each case.

For `CC(C)N1C(=O)COc2nc(-c3ccc(C4(N)CCC4)cc3)c(-c3ccccc3)cc21` [Example 57, 6-(4-(1-aminocyclobutyl)phenyl)-1-isopropyl-7-phenyl-1H-pyrido[2,3-b][1,4]oxazin-2(3H)-one], the values for the IC50 at AKT2, at AKT1 and on AKT3 were 100 to 1000 nM, 1000 to 10000 nM and 1000 to 10000 nM, respectively.

For `NC1(c2ccc(-c3nc4c(cc3-c3ccccc3)N(c3cccnc3)S(=O)(=O)CO4)cc2)CCC1` [Example 74, 6-(4-(1-aminocyclobutyl)phenyl)-7-phenyl-1-(pyridin-3-yl)-1H-pyrido[3,2-e][1,3,4]oxathiazine 2,2-dioxide], the IC50 was 1000 to 10000 nM on AKT2, 1000 to 10000 nM on AKT1 and greater than 10000 nM at AKT3.

`CC1(C)CC(=O)c2cc(-c3ccccc3)c(-c3ccc(C4(N)CCC4)cc3)nc2C1` [Example 18, 2-(4-(1-aminocyclobutyl)phenyl)-7,7-dimethyl-3-phenyl-7,8-dihydroquinolin-5(6H)-one]: the IC50 on AKT2 was 1000 to 10000 nM; on AKT1, 1000 to 10000 nM; at AKT3, greater than 10000 nM.

For the compound `N[C@]1(c2ccc(-c3nc4c(cc3-c3ccccc3)N(CC(F)(F)F)C(=O)CO4)cc2)C[C@H](O)C1` [Example 148, 6-(4-((1s,3s)-1-amino-3-hydroxycyclobutyl)phenyl)-7-phenyl-1-(2,2,2-trifluoroethyl)-1H-pyrido[2,3-b][1,4]oxazin-2(3H)-one], the values for the IC50 at AKT2, at AKT1 and at AKT3 were 100 to 1000 nM, 100 to 1000 nM and greater than 10000 nM, respectively.

Consider `NC1(c2ccc(-c3nc4c(cc3-c3ccccc3)N(CC(F)(F)F)C(=O)CO4)cc2)CCC1` [Example 60, 6-(4-(1-aminocyclobutyl)phenyl)-7-phenyl-1-(2,2,2-trifluoroethyl)-1H-pyrido[2,3-b][1,4]oxazin-2(3H)-one], for which the IC50 was no more than 100 nM on AKT2, 100 to 1000 nM on AKT1 and 1000 to 10000 nM at AKT3.

Take `NC1(c2ccc(-c3nc4c(cc3-c3ccccc3)N(CCF)C(=O)N(CCF)C4)cc2)CCC1` [Example 109, 6-(4-(1-aminocyclobutyl)phenyl)-1,3-bis(2-fluoroethyl)-7-phenyl-3,4-dihydropyrido[3,2-d]pyrimidin-2(1H)-one]: the IC50 was no more than 100 nM at AKT2, no more than 100 nM at AKT1 and 100 to 1000 nM on AKT3.

As for `CN1C(=O)COc2nc(-c3ccc(C4(N)CCC4)cc3)c(-c3ccc(F)cc3)cc21` [Example 132, 6-(4-(1-aminocyclobutyl)phenyl)-7-(4-fluorophenyl)-1-methyl-1H-pyrido[2,3-b][1,4]oxazin-2(3H)-one], the results for the IC50 on AKT2, on AKT1 and at AKT3 were 1000 to 10000 nM, 100 to 1000 nM and greater than 10000 nM, respectively.

For `NC1(c2ccc(-c3nc4c(cc3-c3ccccc3)-c3n[nH]c(=O)n3CC4)cc2)CCC1` [Example 26, 8-(4-(1-aminocyclobutyl)phenyl)-9-phenyl-5,6-dihydro-[1,2,4]triazolo[3,4][1,6]naphthyridin-3(2H)-one], the results for the IC50 on AKT2, at AKT1 and on AKT3 were 1000 to 10000 nM, no more than 100 nM and greater than 10000 nM, respectively.

In the case of `Cn1nc2n(c1=O)-c1cc(-c3ccccc3)c(-c3ccc(C4(N)CCC4)cc3)nc1OC2` [Example 99, 7-(4-(1-aminocyclobutyl)phenyl)-2-methyl-8-phenyl-2,4-dihydro-1H-pyrido[2,3-b][1,2,4]triazolo[4,3-d][1,4]oxazin-1-one], the IC50 is 100 to 1000 nM on AKT2, 100 to 1000 nM on AKT1 and 1000 to 10000 nM on AKT3.

As for `CCN1C(=O)COc2nc(-c3ccc(CN)cc3)c(-c3ccccc3)cc21` [Example 151, 6-(4-(Aminomethyl)phenyl)-1-ethyl-7-phenyl-1H-pyrido[2,3-b][1,4]oxazin-2(3H)-one], the IC50 at AKT2 was 100 to 1000 nM; at AKT1 it was 1000 to 10000 nM; on AKT3 it was greater than 10000 nM.

As for `N#CCN1C(=O)COc2nc(-c3ccc(C4(N)CCC4)cc3)c(-c3ccccc3)cc21` [Example 33, 2-(6-(4-(1-aminocyclobutyl)phenyl)-2-oxo-7-phenyl-2,3-dihydro-1H-pyrido[2,3-b][1,4]oxazin-1-yl)acetonitrile], the IC50 is no more than 100 nM on AKT2, no more than 100 nM at AKT1 and 100 to 1000 nM at AKT3.

In the case of `CN1C(=O)COc2nc(-c3ccc(C4(N)CCC4)cc3)c(-c3ccsc3)cc21` [Example 125, 6-(4-(1-aminocyclobutyl)phenyl)-1-methyl-7-(thiophen-3-yl)-1H-pyrido[2,3-b][1,4]oxazin-2(3H)-one], the results for the IC50 on AKT2, on AKT1 and on AKT3 were 1000 to 10000 nM, 100 to 1000 nM and 1000 to 10000 nM, respectively.

Consider `CN1C(=O)COc2nc(-c3ccc(C4(N)CCC4)cc3)c(CC3CC3)cc21` [Example 133, 6-(4-(1-aminocyclobutyl)phenyl)-7-(cyclopropylmethyl)-1-methyl-1H-pyrido[2,3-b][1,4]oxazin-2(3H)-one], for which the IC50 was greater than 10000 nM at AKT2, 1000 to 10000 nM on AKT1 and greater than 10000 nM at AKT3.

Consider `NC1(c2ccc(-c3nc4c(cc3-c3ccccc3)N(CCF)C(=O)CO4)cc2)CCC1` [Example 86, 6-(4-(1-aminocyclobutyl)phenyl)-1-(2-fluoroethyl)-7-phenyl-1H-pyrido[2,3-b][1,4]oxazin-2(3H)-one], for which the IC50 on AKT2 was no more than 100 nM; at AKT1, 100 to 1000 nM; on AKT3 it was 1000 to 10000 nM.

Consider `NC1(c2ccc(-c3nc4c(cc3-c3ccccc3)N(CC3CC3)C(=O)CO4)cc2)CCC1` [Example 55, 6-(4-(1-aminocyclobutyl)phenyl)-1-(cyclopropylmethyl)-7-phenyl-1H-pyrido[2,3-b][1,4]oxazin-2(3H)-one], for which the IC50 is no more than 100 nM on AKT2, 100 to 1000 nM on AKT1 and 100 to 1000 nM at AKT3.

(Values after patent publication US9221838B2, “Inhibitors of AKT activity” (ALMAC DISCOVERY LIMITED, priority 2009, dated 2015).)
